In paper PMC10177510, “A Multicenter, Open-Label, Phase I/II Study of FN-1501 in Patients with Advanced Solid Tumors” (Cancers, 2023):

System: advanced solid tumors
Test: Anti-tumor activity in patients (RECIST best response, PFS, OS)
Format: in vivo, human
Description: Among 64 pts enrolled in the trial, 16 failed screening and 48 (75%) were treated with FN-1501 at one of the dose levels tested. Eligible pts were ≥18 years of age with (a) relapsed or refractory AML that had exhausted or was ineligible for therapeutic options, or with ≥5% blasts in the bone marrow according to World Health Organization (WHO) 2016 criteria; or (b) solid tumors evaluable per RECIST v1.1 that had exhausted (or were ineligible for) therapeutic options likely to convey clinical benefit. Other inclusion criteria included Eastern Cooperative Oncology Group (ECOG) performance status (PS) of <2 and life expectancy ≥3 months. Pts with a clinically controlled central nervous system (CNS) tumor or metastasis and adequate organ function were eligible to participate. Ongoing use of strong CYP3A inhibitors or inducers was exclusionary unless participants were willing and able to change to use of an equivalent medication without this profile. Other exclusion criteria included current or recent major surgical procedures, anticancer therapy (chemotherapy, immunotherapy), biologic, live virus vaccine, or investigational therapy within 21 days prior to initiation of the study treatment. For patients in the AML cohort, acute promyelocytic leukemia (APML), chronic myelogenous leukemia in blast crisis (BCR-ABL), or active CNS leukemia were exclusionary.
Descriptive statistics were used for all safety, PK, and efficacy parameters. Data were summarized using descriptive statistics (number of pts, mean, median, standard deviation, minimum, and maximum) for continuous variables and using frequencies and percentages for discrete variables. Time-to-event variables were summarized using Kaplan–Meier methods and figures for the estimated median time.

**Q.** Which results are given for `CN1CCN(Cc2ccc(NC(=O)c3[nH]ncc3Nc3ncnc4[nH]ccc34)cc2)CC1` [FN-1501]?
**A.** Progressive Disease, best RECIST response, n (%) (40 mg/day, N = 4, ITT): 1 (25); Stable Disease, best RECIST response, n (%) (40 mg/day, N = 4, ITT): 1 (25); Complete Response, best RECIST response, n (%) (54 mg/day, N = 3, ITT): 0; DCR (54 mg/day, N = 3, ITT): 0.0%; Landmark Progression Free Survival Rate at 3 months (Table S6, Overall Survival) (54 mg/day, N = 3, ITT): 66.7%; Landmark Progression Free Survival Rate at 6 months (Table S6, Overall Survival) (54 mg/day, N = 3, ITT): 0.0%; Landmark Progression Free Survival Rate at 9 months (Table S6, Overall Survival) (54 mg/day, N = 3, ITT): 0.0%; Landmark Progression Free Survival Rate at 12 months (Table S6, Overall Survival) (54 mg/day, N = 3, ITT): 0.0%; Median overall survival (54 mg/day, N = 3, ITT): 3.2 months; Median progression-free survival (54 mg/day, N = 3, ITT): 1.4 months; ORR (54 mg/day, N = 3, ITT): 0.0%; Partial Response, best RECIST response, n (%) (54 mg/day, N = 3, ITT): 0; Progression Free Survival Rate at 3 months (54 mg/day, N = 3, ITT): 0.0%; Progression Free Survival Rate at 6 months (54 mg/day, N = 3, ITT): 0.0%; Progression Free Survival Rate at 9 months (54 mg/day, N = 3, ITT): 0.0%; Progression Free Survival Rate at 12 months (54 mg/day, N = 3, ITT): 0.0%; Progressive Disease, best RECIST response, n (%) (54 mg/day, N = 3, ITT): 2; Stable Disease, best RECIST response, n (%) (54 mg/day, N = 3, ITT): 0; Complete Response, best RECIST response, n (%) (72 mg/day, N = 3, ITT): 0; DCR (72 mg/day, N = 3, ITT): 0.0%; Median progression-free survival (72 mg/day, N = 3, ITT): 1.3 months; ORR (72 mg/day, N = 3, ITT): 0.0%; Partial Response, best RECIST response, n (%) (72 mg/day, N = 3, ITT): 0; Progression Free Survival Rate at 3 months (72 mg/day, N = 3, ITT): 0.0%; Progression Free Survival Rate at 6 months (72 mg/day, N = 3, ITT): 0.0%; Progression Free Survival Rate at 9 months (72 mg/day, N = 3, ITT): 0.0%; Progression Free Survival Rate at 12 months (72 mg/day, N = 3, ITT): 0.0%; Progressive Disease, best RECIST response, n (%) (72 mg/day, N = 3, ITT): 3; Stable Disease, best RECIST response, n (%) (72 mg/day, N = 3, ITT): 0; Complete Response, best RECIST response, n (%) (96 mg/day, N = 5, ITT): 0; DCR (96 mg/day, N = 5, ITT): 40.0%; Landmark Progression Free Survival Rate at 3 months (Table S6, Overall Survival) (96 mg/day, N = 5, ITT): 75.0%; Landmark Progression Free Survival Rate at 6 months (Table S6, Overall Survival) (96 mg/day, N = 5, ITT): 37.5%; Landmark Progression Free Survival Rate at 9 months (Table S6, Overall Survival) (96 mg/day, N = 5, ITT): 37.5%; Landmark Progression Free Survival Rate at 12 months (Table S6, Overall Survival) (96 mg/day, N = 5, ITT): 37.5%; Median overall survival (96 mg/day, N = 5, ITT): 3.1 months; Median progression-free survival (96 mg/day, N = 5, ITT): 2.7 months; ORR (96 mg/day, N = 5, ITT): 0.0%; Partial Response, best RECIST response, n (%) (96 mg/day, N = 5, ITT): 0; Progression Free Survival Rate at 3 months (96 mg/day, N = 5, ITT): 37.5%; Progression Free Survival Rate at 6 months (96 mg/day, N = 5, ITT): 0.0%; Progression Free Survival Rate at 9 months (96 mg/day, N = 5, ITT): 0.0%; Progression Free Survival Rate at 12 months (96 mg/day, N = 5, ITT): 0.0%; Progressive Disease, best RECIST response, n (%) (96 mg/day, N = 5, ITT): 0; Stable Disease, best RECIST response, n (%) (96 mg/day, N = 5, ITT): 2 (40); Complete Response, best RECIST response, n (%) (128 mg/day, N = 3, ITT): 0; Median progression-free survival (128 mg/day, N = 3, ITT): 3.1 months; ORR (128 mg/day, N = 3, ITT): 0.0%; Partial Response, best RECIST response, n (%) (128 mg/day, N = 3, ITT): 0; Progression Free Survival Rate at 3 months (128 mg/day, N = 3, ITT): 66.7%; Progression Free Survival Rate at 6 months (128 mg/day, N = 3, ITT): 0.0%; Progression Free Survival Rate at 9 months (128 mg/day, N = 3, ITT): 0.0%; Progression Free Survival Rate at 12 months (128 mg/day, N = 3, ITT): 0.0%; Progressive Disease, best RECIST response, n (%) (128 mg/day, N = 3, ITT): 1 (33); Stable Disease, best RECIST response, n (%) (128 mg/day, N = 3, ITT): 1 (33); Complete Response, best RECIST response, n (%) (170 mg/day, N = 4, ITT): 0; DCR (170 mg/day, N = 4, ITT): 50.0%; Median progression-free survival (170 mg/day, N = 4, ITT): 2.2 months; ORR (170 mg/day, N = 4, ITT): 0.0%; Partial Response, best RECIST response, n (%) (170 mg/day, N = 4, ITT): 0; Progression Free Survival Rate at 3 months (170 mg/day, N = 4, ITT): 33.3%; Progression Free Survival Rate at 6 months (170 mg/day, N = 4, ITT): 33.3%; Progression Free Survival Rate at 9 months (170 mg/day, N = 4, ITT): 33.3%; Progression Free Survival Rate at 12 months (170 mg/day, N = 4, ITT): 0.0%; Progressive Disease, best RECIST response, n (%) (170 mg/day, N = 4, ITT): 1 (25); Stable Disease, best RECIST response, n (%) (170 mg/day, N = 4, ITT): 2 (50); Complete Response, best RECIST response, n (%) (226 mg/day, N = 4, ITT): 0; DCR (226 mg/day, N = 4, ITT): 0.0%; Landmark Progression Free Survival Rate at 3 months (Table S6, Overall Survival) (226 mg/day, N = 4, ITT): 66.7%; Landmark Progression Free Survival Rate at 6 months (Table S6, Overall Survival) (226 mg/day, N = 4, ITT): 66.7%; Landmark Progression Free Survival Rate at 9 months (Table S6, Overall Survival) (226 mg/day, N = 4, ITT): 66.7%; Landmark Progression Free Survival Rate at 12 months (Table S6, Overall Survival) (226 mg/day, N = 4, ITT): 66.7%; Median progression-free survival (226 mg/day, N = 4, ITT): 1.1 months; ORR (226 mg/day, N = 4, ITT): 0.0%; Partial Response, best RECIST response, n (%) (226 mg/day, N = 4, ITT): 0; Progression Free Survival Rate at 3 months (226 mg/day, N = 4, ITT): 0.0%; Progression Free Survival Rate at 6 months (226 mg/day, N = 4, ITT): 0.0%; Progression Free Survival Rate at 9 months (226 mg/day, N = 4, ITT): 0.0%; Progression Free Survival Rate at 12 months (226 mg/day, N = 4, ITT): 0.0%; Progressive Disease, best RECIST response, n (%) (226 mg/day, N = 4, ITT): 1 (25); Stable Disease, best RECIST response, n (%) (226 mg/day, N = 4, ITT): 0; Duration of partial response (1 patient, 40 mg/day, advanced endometrial cancer): 4.2 months; Complete Response, best RECIST response, n (%) (Total, N = 48, ITT): 0; DCR (Total, N = 48, ITT): 33.3%; Landmark Progression Free Survival Rate at 3 months (Table S6, Overall Survival) (Total, N = 48, ITT): 71.7%; Median overall survival (Total, N = 48, ITT): 8.2 months; Median progression-free survival (Total, N = 48, ITT): 1.8 months; ORR (Total, N = 48, ITT): 2.1%; Partial Response, best RECIST response, n (%) (Total, N = 48, ITT): 1 (2); Progression Free Survival Rate at 3 months (Total, N = 48, ITT): 31.1%; Progression Free Survival Rate at 6 months (Total, N = 48, ITT): 11.3%; Progression Free Survival Rate at 9 months (Total, N = 48, ITT): 5.7%; Progression Free Survival Rate at 12 months (Total, N = 48, ITT): 2.8%; Progressive Disease, best RECIST response, n (%) (Total, N = 48, ITT): 18; Stable Disease, best RECIST response, n (%) (Total, N = 48, ITT): 15 (31); Patients with progressive disease (PD) as best response by RECIST (all doses): 38%; Patients with stable disease (SD) as best response by RECIST (all doses): 31%; Remaining response-evaluable pts with PD (all doses): 67%
